This note sets out measurements from paper PMC10559868, “Spectroscopic study and molecular simulation: Bovine serum albumin binding with anticancer Pt complex of amyl dithiocarbamate ligand” (Heliyon, 2023).

For this assay, the target named is T1, Bovine serum albumin (BSA) (Bos taurus, UniProt P02769).
T1 construct: gene ALB
Conditions: read-out: Kb M^-1)).

Each structure is given as a SMILES string.

T1 sequence (P02769 25-607): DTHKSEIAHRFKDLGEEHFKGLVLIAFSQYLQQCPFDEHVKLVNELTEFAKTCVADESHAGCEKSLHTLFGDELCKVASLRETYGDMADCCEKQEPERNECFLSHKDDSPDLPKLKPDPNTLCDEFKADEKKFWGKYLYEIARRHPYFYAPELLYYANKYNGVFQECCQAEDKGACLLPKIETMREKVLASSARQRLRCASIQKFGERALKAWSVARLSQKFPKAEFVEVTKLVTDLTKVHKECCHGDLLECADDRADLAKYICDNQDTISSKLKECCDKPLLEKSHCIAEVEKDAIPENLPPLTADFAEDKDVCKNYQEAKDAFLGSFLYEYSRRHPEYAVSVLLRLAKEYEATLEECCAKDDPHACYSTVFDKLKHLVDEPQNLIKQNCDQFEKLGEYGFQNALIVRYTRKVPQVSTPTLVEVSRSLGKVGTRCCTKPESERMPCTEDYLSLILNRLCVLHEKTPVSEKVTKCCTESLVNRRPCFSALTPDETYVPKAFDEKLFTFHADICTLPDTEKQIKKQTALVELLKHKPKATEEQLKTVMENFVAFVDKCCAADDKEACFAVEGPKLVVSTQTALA

Consider `CCCCCNC1=[S+][Pt-2]2([S]1)[n+]1ccccc1-c1cccc[n+]12` [[Pt(bpy)(amyl.dtc)]NO3], for which the Kd is 148 µM.
